According to Sander's compilation of Henry's law constants (doi:10.1016/j.hazl.2022.100070):

assay: Henry solubility constant Hcp at 298.15 K (mol/(m3 Pa)); settings: reference: Abusallout et al. (2022)

Compound | Henry solubility constant Hcp
CCNS(=O)(=O)C(F)(F)C(F)(F)C(F)(F)C(F)(F)C(F)(F)C(F)(F)C(F)(F)C(F)(F)F [N-ethylperfluorooctanesulfonamide] | 0.00094
CNS(=O)(=O)C(F)(F)C(F)(F)C(F)(F)C(F)(F)C(F)(F)C(F)(F)C(F)(F)C(F)(F)F [N-methylperfluorooctanesulphonamide] | 0.00044
C=CC(=O)OCCC(F)(F)C(F)(F)C(F)(F)C(F)(F)C(F)(F)C(F)(F)C(F)(F)C(F)(F)F | 0.0013
C=CC(F)(F)C(F)(F)C(F)(F)C(F)(F)C(F)(F)C(F)(F)F [(perfluorohexyl)ethene] | 0.00011
FC(F)(F)C(F)(F)C(F)(F)C(F)(F)C(F)(F)C(F)(F)I [perfluorohexyl iodide] | 0.00046
OCCC(F)(F)C(F)(F)C(F)(F)C(F)(F)C(F)(F)C(F)(F)C(F)(F)C(F)(F)C(F)(F)C(F)(F)F [1,1,2,2-tetrahydroperfluoro dodecanol] | 0.00014
FC(F)(F)C(F)(F)C(F)(F)C(F)(F)C(F)(F)C(F)(F)CCI [1,1,1,2,2,3,3,4,4,5,5,6,6-tridecafluoro-8-iodooctane] | 0.0013

Other lines, results leading:

Henry solubility constant Hcp | Compound
0.0013 | OCCC(F)(F)C(F)(F)C(F)(F)C(F)(F)F [1H,1H,2H,2H-perfluorohexan-1-ol]
0.0002 | OCCC(F)(F)C(F)(F)C(F)(F)C(F)(F)C(F)(F)C(F)(F)C(F)(F)C(F)(F)F [1H,1H,2H,2H-perfluorodecan-1-ol]
0.0045 | O=S(=O)(O)CCC(F)(F)C(F)(F)C(F)(F)C(F)(F)F [1H,1H,2H,2H-perfluorohexane sulfonic acid]
0.0022 | O=S(=O)(O)CCC(F)(F)C(F)(F)C(F)(F)C(F)(F)C(F)(F)C(F)(F)C(F)(F)C(F)(F)F [1H,1H,2H,2H-perfluorodecane sulfonic acid]
0.0021 | O=S(=O)(O)CCC(F)(F)C(F)(F)C(F)(F)C(F)(F)C(F)(F)C(F)(F)F [1H,1H,2H,2H-perfluorooctane sulfonic acid]
0.00058 | O=C(O)CC(F)(F)C(F)(F)C(F)(F)C(F)(F)C(F)(F)C(F)(F)C(F)(F)C(F)(F)F [2H,2H-perfluorodecanoic acid]
0.00033 | OCCC(F)(F)C(F)(F)C(F)(F)C(F)(F)C(F)(F)C(F)(F)F [1H,1H,2H,2H-perfluoro-1-octanol]
0.00084 | FC(F)(F)C(F)(F)C(F)(F)C(F)(F)C(F)(F)C(F)(F)/C=C/I [1H,2H-perfluoro-1-iodooct-1-ene]
